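Dose response: 5 concentrations. Exposure: 48 h. Format: 96-well plates. Endpoint: linear interpolation; highest concentration if not reached. GI50 = concentration required for 50% inhibition of growth.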 Calls of active or inactive are those of the source. No stated cut-off is given here; in the data, active = GI50 up to about 1.1 µM and inactive = higher.
How the values were obtained:
Assay in all cases: growth of human tumour cells (NCI), 48 h
[1] = tested on: SW-620
[2] = tested on: U-251
[3] = tested on: OVCAR-8
[4] = tested on: RXF 393
[5] = tested on: EKVX
[6] = tested on: NCI-H23
[7] = tested on: KM12
[8] = tested on: SNB-19
[9] = tested on: TK-10
[10] = tested on: HT-29
[11] = tested on: SN12C
[12] = tested on: K562
[13] = tested on: SK-MEL-28
[14] = tested on: OVCAR-5
[15] = tested on: COLO 205
[16] = tested on: UACC-62
[17] = tested on: CAKI-1
[18] = tested on: NCI-H460
[19] = tested on: UACC-257
[20] = tested on: RPMI-8226

| Structure (SMILES) | GI50 [1] | GI50 [2] | GI50 [3] | GI50 [4] | GI50 [5] | GI50 [6] | GI50 [7] | GI50 [8] | GI50 [9] | GI50 [10] | GI50 [11] | GI50 [12] | GI50 [13] | GI50 [14] | GI50 [15] | GI50 [16] | GI50 [17] | GI50 [18] | GI50 [19] | GI50 [20] |
| --- | --- | --- | --- | --- | --- | --- | --- | --- | --- | --- | --- | --- | --- | --- | --- | --- | --- | --- | --- | --- |
| C/C=C/CC(C)[C@@H](O)[C@H](NC)C(=O)O (stereo not given in full) | > 100 µM (inactive) | > 100 µM (inactive) | > 100 µM (inactive) | > 100 µM (inactive) | > 100 µM (inactive) | > 100 µM (inactive) | > 100 µM (inactive) | > 100 µM (inactive) | > 100 µM (inactive) | > 100 µM (inactive) | > 100 µM (inactive) | > 100 µM (inactive) | > 100 µM (inactive) | > 100 µM (inactive) | > 100 µM (inactive) | > 100 µM (inactive) | > 100 µM (inactive) | > 100 µM (inactive) | > 100 µM (inactive) | > 100 µM (inactive) |
| Cc1ccc(NC(=O)CC2Sc3ccccc3NC2=O)cc1C (stereo not given) | > 100 µM (inactive) | 79.6 µM (inactive) | 46.8 µM (inactive) | 29.9 µM (inactive) | > 100 µM (inactive) | > 100 µM (inactive) | 90.4 µM (inactive) | > 100 µM (inactive) | > 100 µM (inactive) | 67.1 µM (inactive) | > 100 µM (inactive) | 28.2 µM (inactive) | > 100 µM (inactive) | > 100 µM (inactive) | 65.2 µM (inactive) | 75.3 µM (inactive) | 85.9 µM (inactive) | 58.6 µM (inactive) | > 100 µM (inactive) | > 100 µM (inactive) |
| COc1ccc2c(c1)/C(=C(\C(Cl)=C(\Cl)N1CCCCC1)[N+](=O)[O-])N2 | 71 µM (inactive) | > 100 µM (inactive) | 87.5 µM (inactive) | 64 µM (inactive) | 48.9 µM (inactive) | > 100 µM (inactive) | > 100 µM (inactive) | > 100 µM (inactive) | > 100 µM (inactive) | > 100 µM (inactive) | > 100 µM (inactive) | 42.1 µM (inactive) | > 100 µM (inactive) | > 100 µM (inactive) | 59.2 µM (inactive) | > 100 µM (inactive) | > 100 µM (inactive) | > 100 µM (inactive) | > 100 µM (inactive) |  |
| CN(C(=O)C1=CCC2(CC1)OCCO2)c1ccccc1I | > 100 µM (inactive) | > 100 µM (inactive) | > 100 µM (inactive) |  | > 100 µM (inactive) | > 100 µM (inactive) | > 100 µM (inactive) | > 100 µM (inactive) | > 100 µM (inactive) | > 100 µM (inactive) | > 100 µM (inactive) | > 100 µM (inactive) | > 100 µM (inactive) | > 100 µM (inactive) | > 100 µM (inactive) | > 100 µM (inactive) | > 100 µM (inactive) | > 100 µM (inactive) | > 100 µM (inactive) | > 100 µM (inactive) |
| CC(=O)Nc1ccc2c3c(cc(O)c2c1)N(C(=O)CCCCCC(=O)Nc1ccc2c4c(cc(O)c2c1)N(C(=O)OC(C)(C)C)CC4CCl)CC3CCl (stereo not given) | 2.17 µM (inactive) | 0.74 µM (active) | 2.35 µM (inactive) | 1.24 µM (inactive) | 41.9 µM (inactive) | 0.8 µM (active) | 2.73 µM (inactive) | 1.6 µM (inactive) | 18 µM (inactive) | 3.15 µM (inactive) | 3.45 µM (inactive) | 3.3 µM (inactive) | 6.28 µM (inactive) | 10 µM (inactive) | 1.99 µM (inactive) | 1.39 µM (inactive) | > 100 µM (inactive) | 0.625 µM (active) | 3.37 µM (inactive) | 3.37 µM (inactive) |
| OC(c1ccccc1)C1CC2C=CC1C2 (stereo not given) | > 100 µM (inactive) | > 100 µM (inactive) | > 100 µM (inactive) | > 100 µM (inactive) | > 100 µM (inactive) | > 100 µM (inactive) | > 100 µM (inactive) | > 100 µM (inactive) | > 100 µM (inactive) | > 100 µM (inactive) | > 100 µM (inactive) | > 100 µM (inactive) | > 100 µM (inactive) | > 100 µM (inactive) | > 100 µM (inactive) | > 100 µM (inactive) | > 100 µM (inactive) | > 100 µM (inactive) | > 100 µM (inactive) | > 100 µM (inactive) |
| COC(=O)CCC(=O)Nc1ccc(Cl)cc1C | > 100 µM (inactive) | > 22.4 µM (inactive) | > 100 µM (inactive) | > 63 µM (inactive) | > 55.2 µM (inactive) | > 71 µM (inactive) | 15.5 µM (inactive) | > 100 µM (inactive) | > 100 µM (inactive) | > 100 µM (inactive) | > 23.2 µM (inactive) | 20.8 µM (inactive) | > 100 µM (inactive) | > 100 µM (inactive) | > 64.9 µM (inactive) | 14.3 µM (inactive) | 23.4 µM (inactive) | > 100 µM (inactive) | > 67.1 µM (inactive) | 0.973 µM (active) |
| Cc1ccc(S(=O)(=O)NCCCSCCO)cc1 | 89.7 µM (inactive) | 8.26 µM (inactive) | 57.8 µM (inactive) | > 100 µM (inactive) |  | 25.6 µM (inactive) | 20.6 µM (inactive) | 9.04 µM (inactive) | 90.8 µM (inactive) | 33.6 µM (inactive) | 43 µM (inactive) | 38.4 µM (inactive) | > 100 µM (inactive) |  | 18.3 µM (inactive) |  |  | 43.9 µM (inactive) | 44.1 µM (inactive) |  |
| CCN(CC)CCC(=O)c1ccccc1 | 19.6 µM (inactive) | 23.3 µM (inactive) | 24.2 µM (inactive) | 20.4 µM (inactive) | 60 µM (inactive) | 19.1 µM (inactive) | 43.4 µM (inactive) | > 100 µM (inactive) | 21.3 µM (inactive) | 28.2 µM (inactive) | 19.3 µM (inactive) | 7.45 µM (inactive) | 16.9 µM (inactive) | 21.5 µM (inactive) | > 10 µM (inactive) | > 10 µM (inactive) |  | 30.8 µM (inactive) | 24.2 µM (inactive) | 2.85 µM (inactive) |
| CN(C)C(=S)/N=c1\ssc(=S)n1Cc1ccco1 | 0.701 µM (active) | 1.15 µM (inactive) | 3.79 µM (inactive) | 0.998 µM (active) | 6.9 µM (inactive) | 2.38 µM (inactive) | 2.06 µM (inactive) | 2.9 µM (inactive) | 20.6 µM (inactive) | 0.998 µM (active) | 4.21 µM (inactive) | 0.348 µM (active) | 8.07 µM (inactive) | 32 µM (inactive) | 2.21 µM (inactive) | 0.879 µM (active) | 2.01 µM (inactive) | 1.34 µM (inactive) | 3.44 µM (inactive) | 1.48 µM (inactive) |
| CC1CC/C(=C\c2ccc(F)cc2)C(=O)/C1=C/c1ccc(F)cc1 (stereo not given) | 6.04 µM (inactive) | 4.95 µM (inactive) | 2.7 µM (inactive) | 3.17 µM (inactive) | 3.67 µM (inactive) | 6.44 µM (inactive) | 2.97 µM (inactive) | 10.1 µM (inactive) | 3.85 µM (inactive) | 2.92 µM (inactive) | 3.22 µM (inactive) | 3.76 µM (inactive) | 13.2 µM (inactive) | 4.13 µM (inactive) | 5.77 µM (inactive) | 11.6 µM (inactive) | 3.85 µM (inactive) |  | 15.7 µM (inactive) | 1.61 µM (inactive) |
| Cc1c(C)c(S(=O)(=O)N(CCCN)OCCCN)c(C)c2c1OC(C)(C)CC2 | 15.1 µM (inactive) | 11.9 µM (inactive) | 16.3 µM (inactive) | 9.04 µM (inactive) | 16.7 µM (inactive) | 14.5 µM (inactive) | 12.4 µM (inactive) | 11.8 µM (inactive) | 14.7 µM (inactive) | 15.1 µM (inactive) | 15.1 µM (inactive) | 15.2 µM (inactive) | 15.2 µM (inactive) | 13 µM (inactive) | 17.5 µM (inactive) | 14.8 µM (inactive) | 16.5 µM (inactive) | 15.8 µM (inactive) | 13.7 µM (inactive) | 17.6 µM (inactive) |
| COc1ccccc1-c1cc(O)c2ccc(C)nc2n1 | 50.9 µM (inactive) |  | > 100 µM (inactive) | > 100 µM (inactive) | 97.3 µM (inactive) | > 100 µM (inactive) | 42.6 µM (inactive) | > 100 µM (inactive) | > 100 µM (inactive) | 26.6 µM (inactive) | > 100 µM (inactive) | 58.9 µM (inactive) | > 100 µM (inactive) | > 100 µM (inactive) | 54.1 µM (inactive) | > 100 µM (inactive) | > 100 µM (inactive) |  | > 100 µM (inactive) | > 100 µM (inactive) |
| COc1cc(O)c2c(=O)c(O)c(-c3ccc(O)c(O)c3)oc2c1 [RHAMNETIN] | 10.8 µM (inactive) | 4.86 µM (inactive) | 10.7 µM (inactive) |  | 10.2 µM (inactive) |  |  | 12.2 µM (inactive) | 21.4 µM (inactive) | 15.9 µM (inactive) |  | 9.53 µM (inactive) | 6.76 µM (inactive) | 19.7 µM (inactive) | 13.5 µM (inactive) | 7.91 µM (inactive) | 1.09 µM (active) | 4.25 µM (inactive) | 13 µM (inactive) | 6.73 µM (inactive) |

— ChEMBL document CHEMBL1201862, “PubChem BioAssay data set” (2004)
